Assay results from publication PMC6429263, “Evolution and Antibacterial Evaluation of 8-Hydroxy-cycloberberine Derivatives as a Novel Family of Antibacterial Agents Against MRSA” (Molecules, 2019).

Columns and labels:
[1] = Stability in liver microsomes, mouse; assay type: in vitro ADME, CD-1 mouse
Method: (§1) The assay was performed with liver microsomes from CD-1 mouse, SD rat and human. Microsomes in 100 mM potassium phosphate buffer (0.5 mg/mL microsomal protein), cofactor MgCl2 (10 mM), tested compound (1 μM, cosolvent (0.01% DMSO), 0.99% CH3OH), and then NADPH (1 mM) at 37 °C for 60 min. The reaction can be started by the addition of liver microsomes or the tested compound or NADPH. Aliquots were sampled at 0, 5, 10, 20, 30 and 60 min incubation, and enzymatic reaction was stopped by protein precipitation in cold acetonitrile including 100 ng/mL tolbutamide and 100 ng/mL labetalol as internal standard. After centrifugation, samples were then analyzed by LC/MS/MS [26].

[2] = Stability in liver microsomes, human; assay type: in vitro ADME
Method: as §1, with “Microsomes in 100 mM potassium phosphate buffer (0.5 mg/mL microsomal protein), cofactor MgCl2 (10 mM), tested compound (1 μM, cosolvent (0.01% DMSO), 0.99% CH3OH), and then NADPH (1 mM) at 37 °C for 60 min.” left out

[3] = Stability in liver microsomes, rat; assay type: in vitro ADME, SD rat
Method: as §1

## C[C@]12CC[C@H]3[C@@H](CCC4=CC(=O)CC[C@@]43C)[C@@H]1CC[C@@H]2O [Tes, testosterone, reference compound]
[1]; 60 min
  Remaining Ratio (T = 60 min): 0%
[1]; CD-1, 1 μM
  half-life at 1 μM: 5.5 min
[1]; CD-1, 1 μM, read-out: CL Int (mic)
  microsomal CLint at 1 μM: 254 µL/min/mg
[2]; 1 μM
  half-life at 1 μM: 12.9 min
[2]; 60 min
  Remaining Ratio (T = 60 min): 3.9%
[3]; 60 min
  Remaining Ratio (T = 60 min): 0%
[3]; SD, 1 μM
  half-life at 1 μM: 0.6 min
[3]; SD, 1 μM, read-out: CL Int (mic)
  microsomal CLint at 1 μM: 2350 µL/min/mg
